# Measured values: ChEMBL document CHEMBL1137489, “Inhibition of choline transport by redox-active cholinomimetic bis-catechol reagents” (Bioorg Med Chem, 2007)
# Calls of active or inactive are those of the source. The rule behind the calls is not given here.
# What was measured:
# [1] = Inhibition of C57BL/6 mouse synaptosomal choline transporter; design: species or system C57BL6
# Mus musculus = species: Mus musculus; experiment: Inhibition of C57BL/6 mouse nicotinic acetyl choline receptor; conditions: C57BL6
Structure (SMILES),IC50 [1],Ki [1],Activity (Mus musculus)
C[N+](C)(CCCCCC[N+](C)(C)Cc1cccc(O)c1O)Cc1cccc(O)c1O,76 µM,73 µM,Active
C[N+](C)(C)CCCCCC[N+](C)(C)C [HEXAMETHONIUM CHLORIDE],130 µM,,
C[N+](C)(C)CCCCCCCCCC[N+](C)(C)C [DECAMETHONIUM],1.5 µM,,
C[N+](C)(CCCCCCCCCC[N+](C)(C)Cc1cccc(O)c1O)Cc1cccc(O)c1O,21 µM,31 µM,Active
